Data: publication PMC5519928, “Log D versus HPLC derived hydrophobicity: The development of predictive tools to aid in the rational design of bioactive peptoids” (Biopolymers, 2017)
Converted amounts (≈) assume the structure as drawn. Non-standard residues stand in square brackets, D forms with d. Residues, ends and D or L forms follow the SMILES beside them. Gly(N-2-aminoethyl) = NCCNCC(=O)O; Nspe = C[C@H](NCC(=O)O)c1ccccc1; Nphe = O=C(O)CNCc1ccccc1; Nlys = NCCCCNCC(=O)O

Key:
[1] = Average hydrophobicity by analytical reverse-phase HPLC retention; assay type: physicochemical; settings: for RP-HPLC Retention (% MeCN): Supplement table 4 (chemical and physical data for peptoid library), % MeCN at elution in RP-HPLC; for RP-HPLC Retention: Table S3, representative analytical RP-HPLC traces, SB-Analytical ODH-S column 100 x 1.6 mm, 3.5 µm, 0-100% solvent B over 30 min at 220 nm, A = 95% H2O, 0.05% TFA, B = 95% MeCN, 0.03% TFA
Description: (§1) To examine the average hydrophobicity of the peptoids, the retention time for from reverse‐phase HPLC was determined on a C18 column using acetonitrile and water, with 0.1% TFA (see Figure 3A). To find log D values, partitioning experiments were carried out, as illustrated by Figure 2. A peptoid solution (between 10 and 100 µM) in PBS was added to an equal volume of octanol and the system allowed to equilibrate under gentle agitation for ∼150 h (as 48 h was not found to be sufficient for the system to reach equilibrium). At this point it is assumed that the peptoid has partitioned between these two phases, such as to minimise its free energy.
Preparative RP‐HPLC was performed with a semi‐preparative Perkin Elmer Series 200 lc pump fitted with a 785A UV/Vis detector using a SB‐Analytical ODH‐S optimal column (250 mm × 10 mm, 5 µm); flow rate 2 mL min^−1; λ = 250 nm, typical linear gradient elution 0–50% of solvent B over 60 min (A = 0.1% TFA in 95% H2O and 5% MeCN, B = 0.1% TFA in 5% H2O and 95% MeCN). Analytical RP‐HPLC was performed with a Perkin Elmer Series 200 LC pump fitted with a Series 200 UV/Vis detector using a SB‐Analytical ODH‐S optimal column (100 mm × 1.6 mm, 3.5 µm); flow rate 1 mL min^−1; λ = 220 nm, linear gradient elution 0–100% of solvent B over 30 min (A = 0.05% TFA, 95% H2O, 5% MeCN, B = 0.03% TFA, 5% H2O, 95% MeCN).
Preparative RP-HPLC was performed with a semi-preparative Perkin Elmer Series 200 lc pump fitted with a 785A UV/Vis detector using a SB-Analytical ODH-S optimal column (250 × 10 mm, 5 µm); flow rate 2 ml min^−1; λ = 250 nm, typical linear gradient elution 0-50% of solvent B over 60 min (A = 0.1% TFA in 95% H2O and 5% MeCN, B = 0.1% TFA in 5% H2O and 95% MeCN). Analytical RP-HPLC was performed with a Perkin Elmer Series 200 LC pump fitted with a Series 200 UV/Vis detector using a SB-Analytical ODH-S optimal column (100 × 1.6 mm, 3.5 µm); flow rate 1 ml min^−1; λ = 220 nm, linear gradient elution 0-100% of solvent B over 30 min (A = 0.05% TFA, 95% H2O, 5% MeCN, B = 0.03% TFA, 5% H2O, 95% MeCN).
Table S3. Data from analytical RP-HPLC for representative compounds of this peptoid library. Analytical HPLC gradient: 0 – 100% solvent B over 30 min at 220 nm (where solvent A = 95% H2O, 5% MeCN, 0.05 % TFA; solvent B = 95% MeCN, 5% H2O, 0.03% TFA).

[2] = log D by partitioning experiment in octanol and PBS; assay type: physicochemical; settings: pH 7.4
Description: as §1
A combination of UV spectrometry and dynamic light scattering were used to determine that no aggregation was taking place in either phase (see Supporting Information). The peptoid concentrations of both phases were then determined using UV–Vis spectroscopy and the logarithm of the ratio of […] (log D) was calculated (Figure 3B). […]
Partition experiments were carried out by putting 450 µL of octanol in contact with 450 µL of PBS, which contained between […] of peptoid. Each peptoid was measured in triplicate. […] The concentration of peptoid remaining in the PBS and the octanol was measured individually using the phenylalanine peak as before. […]

E. coli = assay type: cell-based; settings: 16 h
Description: (§2) Bacterial cultures were prepared by streaking the bacterial strain from a 4°C- or frozen stock culture to single colonies onto agar plates (containing the appropriate antibiotic for strains carrying antibiotic resistance plasmids) with an inoculation loop, followed by overnight incubation at 37 °C.
(§3) Primary overnight (o/n) cultures were prepared by inoculating a single colony from a streak plate into 5 mL of LB broth in a screw-capped culture tube, that was placed on a tube rotator at 37 °C (or 30 °C for sensitive strains) for overnight incubation. Before the usage of stock cultures the strains genotype were checked. Primary stocks were stored at 4°C for up to 6 weeks and always replaced from fresh colonies.
(§4) Fresh cultures used for experiments contained 0.1-0.5 mL o/n culture diluted into 8 mL of fresh medium in a standard test tube. Placed in a shaking water bath or on a tube rotator the bacteria were grown at the required temperature to the required cell density. Frozen stock cultures used for long term storage that can remain viable for 10 years were prepared by mixing 2.5 mL fresh o/n culture with 1.5 mL sterile 80% glycerol in a 5 mL sterile blood tube and stored at -20 °C.
(§5) MIC values were attained according to the previously described protocol4 and were conducted in 96-well plates (Costar, Fisher Scientific). Using the pre-prepared cultures, an innoculum density of 0.07 at 650 nm was set by comparing the absorbance with 0.5 MacFarland standard (240 μM BaCl2 in 0.18 M H2SO4). The innoculum was then diluted down ten-fold with Iso-sensitest broth (Oxoid, ThermoScientific) before use. Peptoids were initially dissolved in DMSO (5 mM) and then diluted further with Iso-sensitest broth to achieve a concentration range of 4 – 200 µM using 1 : 2 serial dilutions. 50 μl of innoculum and 50 μL of peptoid solution were added to each test well (final concentration range of 2 – 100 µM). Positive control containing only innoculum and Iso-sensitest broth; negative control containing inoculum and serial dilutions of ampicillin (from 250 microgram/mL to 2 microgram per mL); DMSO control containing innoculum and serial dilutions of DMSO; and Iso-sensitest broth were used as a sterile control. […] Quantitative data was attained from absorbance values using a microplate reader.

S. aureus = assay type: cell-based; settings: 16 h
Description: as §2, §3, §4, §5

Row | SMILES | RP-HPLC Retention (% MeCN) [1] [% MeCN] | other results
1 | NCCNCC(=O)N(CC(=O)N(CC(=O)N(CCN)CC(=O)N(CC(=O)N(CC(=O)N(CCN)CC(=O)N(CC(=O)N(CC(=O)N(CCN)CC(=O)N(CC(=O)N(CC(N)=O)Cc1ccccc1)Cc1ccccc1)Cc1ccccc1)Cc1ccccc1)Cc1ccccc1)Cc1ccccc1)Cc1ccccc1)Cc1ccccc1 [Peptoid 7] (H-[Gly(N-2-aminoethyl)][Nphe][Nphe][Gly(N-2-aminoethyl)][Nphe][Nphe][Gly(N-2-aminoethyl)][Nphe][Nphe][Gly(N-2-aminoethyl)][Nphe][Nphe]-NH2) | 37 | RP-HPLC Retention ([1]; 5% MeCN, 5% H2O): 15.2 min
2 | C[C@@H](c1ccccc1)N(CC(N)=O)C(=O)CN(C(=O)CN(CCCCN)C(=O)CN(C(=O)CN(C(=O)CNCCCCN)[C@@H](C)c1ccccc1)[C@@H](C)c1ccccc1)[C@@H](C)c1ccccc1 [Peptoid 6] (H-[Nlys][Nspe][Nspe][Nlys][Nspe][Nspe]-NH2) | 33 | RP-HPLC Retention ([1]; 5% MeCN, 5% H2O): 14.4 min
3 | NCCCCNCC(=O)N(CC(=O)N(CC(=O)N(CCCCN)CC(=O)N(CC(=O)N(CC(N)=O)Cc1ccccc1)Cc1ccccc1)Cc1ccccc1)Cc1ccccc1 [Peptoid 3] (H-[Nlys][Nphe][Nphe][Nlys][Nphe][Nphe]-NH2) | 31 | –
4 | NCCCCNCC(=O)N(CC(=O)N(CC(=O)N(CCCCN)CC(=O)N(CC(=O)N(CC(=O)N(CCCCN)CC(=O)N(CC(=O)N(CC(=O)N(CCCCN)CC(=O)N(CC(=O)N(CC(N)=O)Cc1ccccc1)Cc1ccccc1)Cc1ccccc1)Cc1ccccc1)Cc1ccccc1)Cc1ccccc1)Cc1ccccc1)Cc1ccccc1 [Peptoid 1] (H-[Nlys][Nphe][Nphe][Nlys][Nphe][Nphe][Nlys][Nphe][Nphe][Nlys][Nphe][Nphe]-NH2) | 37 | –
5 | C[C@@H](c1ccccc1)N(CC(N)=O)C(=O)CN(C(=O)CN(CCCCN)C(=O)CN(C(=O)CN(C(=O)CN(CCCCN)C(=O)CN(C(=O)CN(C(=O)CNCCCCN)[C@@H](C)c1ccccc1)[C@@H](C)c1ccccc1)[C@@H](C)c1ccccc1)[C@@H](C)c1ccccc1)[C@@H](C)c1ccccc1 [Peptoid 5] (H-[Nlys][Nspe][Nspe][Nlys][Nspe][Nspe][Nlys][Nspe][Nspe]-NH2) | 37 | RP-HPLC Retention ([1]; 5% MeCN, 5% H2O): 15.3 min
6 | NCCCCNCC(=O)N(CC(=O)N(CC(=O)N(CCCCN)CC(=O)N(CC(=O)N(CC(=O)N(CCCCN)CC(=O)N(CC(=O)N(CC(N)=O)Cc1ccccc1)Cc1ccccc1)Cc1ccccc1)Cc1ccccc1)Cc1ccccc1)Cc1ccccc1 [Peptoid 2] | 34 | –
7 | NCCNCC(=O)N(CC(=O)N(CC(=O)N(CCN)CC(=O)N(CC(=O)N(CC(=O)N(CCN)CC(=O)N(CC(=O)N(CC(N)=O)Cc1ccccc1)Cc1ccccc1)Cc1ccccc1)Cc1ccccc1)Cc1ccccc1)Cc1ccccc1 [Peptoid 8] (H-[Gly(N-2-aminoethyl)][Nphe][Nphe][Gly(N-2-aminoethyl)][Nphe][Nphe][Gly(N-2-aminoethyl)][Nphe][Nphe]-NH2) | 34 | –

Further lines, with some results ahead:

Row | RP-HPLC Retention (% MeCN) [1] [% MeCN] | SMILES | other results
8 | 33 | C[C@@H](c1ccccc1)N(CC(N)=O)C(=O)CN(C(=O)CN(CCN)C(=O)CN(C(=O)CN(C(=O)CNCCN)[C@@H](C)c1ccccc1)[C@@H](C)c1ccccc1)[C@@H](C)c1ccccc1 [Peptoid 12] | –
9 | 30 | NCCNCC(=O)N(CC(=O)N(CC(=O)N(CCN)CC(=O)N(CC(=O)N(CC(N)=O)Cc1ccccc1)Cc1ccccc1)Cc1ccccc1)Cc1ccccc1 [Peptoid 9] (H-[Gly(N-2-aminoethyl)][Nphe][Nphe][Gly(N-2-aminoethyl)][Nphe][Nphe]-NH2) | –
10 | 39 | C[C@@H](c1ccccc1)N(CC(N)=O)C(=O)CN(C(=O)CN(CCN)C(=O)CN(C(=O)CN(C(=O)CN(CCN)C(=O)CN(C(=O)CN(C(=O)CNCCN)[C@@H](C)c1ccccc1)[C@@H](C)c1ccccc1)[C@@H](C)c1ccccc1)[C@@H](C)c1ccccc1)[C@@H](C)c1ccccc1 [Peptoid 11] (H-[Gly(N-2-aminoethyl)][Nspe][Nspe][Gly(N-2-aminoethyl)][Nspe][Nspe][Gly(N-2-aminoethyl)][Nspe][Nspe]-NH2) | log D [2]: negative
11 | 41 | C[C@@H](c1ccccc1)N(CC(N)=O)C(=O)CN(C(=O)CN(CCN)C(=O)CN(C(=O)CN(C(=O)CN(CCN)C(=O)CN(C(=O)CN(C(=O)CN(CCN)C(=O)CN(C(=O)CN(C(=O)CNCCN)[C@@H](C)c1ccccc1)[C@@H](C)c1ccccc1)[C@@H](C)c1ccccc1)[C@@H](C)c1ccccc1)[C@@H](C)c1ccccc1)[C@@H](C)c1ccccc1)[C@@H](C)c1ccccc1 [Peptoid 10] (H-[Gly(N-2-aminoethyl)][Nspe][Nspe][Gly(N-2-aminoethyl)][Nspe][Nspe][Gly(N-2-aminoethyl)][Nspe][Nspe][Gly(N-2-aminoethyl)][Nspe][Nspe]-NH2) | MIC E. coli (E. coli): >100 µM; MIC S. aureus (S. aureus): 2 µM (≈ 3.41 µg/mL); HPLC RT ([1]; Table 2 / main text, chromatographic, RP-HPLC C18 retention time as measure of average hydrophobicity, gradient 0-100% solvent B over 30 min, 220 nm, 1 mL/min, A = 0.05% TFA, 95% H2O, 5% MeCN, B = 0.03% TFA, 5% H2O, 95% MeCN, around pH 2.2): 16.7 min
